Where two headings read alike, the source gives them in different places.
Key:
[1] = target: human recombinant Top1 (Homo sapiens (Human), UniProt P11387); test: Topoisomerase I-mediated DNA cleavage reactions; details: for Top1, compound-induced DNA cleavage due to Top1 inhibition: semiquantitative scale relative to 1 μM camptothecin (90) or MJ-III-65 (91)
Experimental: Topoisomerase I-Mediated DNA Cleavage Reactions.
DNA cleavage reactions were prepared as previously reported with the exception of the DNA substrate. […] Unincorporated [^32P]dGTP was removed using mini Quick Spin DNA columns (Roche, Indianapolis, Ind.), and the eluate containing the 3′-end-labeled DNA substrate was collected. Approximately 2 nM radiolabeled DNA substrate was incubated with recombinant Top1 in 20 μL of reaction buffer [10 mM Tris-HCl (pH 7.5), 50 mM KCl, 5 mM MgCl2, 0.1 mM EDTA, and 15 μg/mL BSA] at 25° C. for 20 min in the presence of various concentrations of compounds. The reactions were terminated by adding SDS (0.5% final concentration) followed by the addition of two volumes of loading dye (80% formamide, 10 mM sodium hydroxide, 1 mM sodium EDTA, 0.1% xylene cyanol, and 0.1% bromphenol blue). Aliquots of each reaction mixture were subjected to 20% denaturing PAGE. Gels were dried and visualized by using a phosphoimager and ImageQuant software (Molecular Dynamics).
Top1 reactions were performed as recently described. […] The reactions were terminated by adding SDS (0.5% final concentration) followed by the addition of two volumes of loading dye (80% formamide, 10 mM sodium hydroxide, 1 mM sodium EDTA, 0.1% xylene cyanol, and 0.1% bromphenol blue). Reactions were subjected to 20% denaturing PAGE. Gels were dried and visualized by using a Typhoon 8600 and ImageQuant software (Molecular Dynamics).

[2] = target: recombinant human Tdp1 (Homo sapiens (Human), UniProt Q9NUW8); test: Gel-based assay measuring the inhibition of recombinant Tdp1; format: biochemical; details: for Tdp1 inhibitory activity (in words): recombinant Tdp1; for IC50: determined by duplicate, read-out: Tdp1 (semiquantitative IC50 scale)
recombinant human Tdp1, sequence (Q9NUW8 whole entry): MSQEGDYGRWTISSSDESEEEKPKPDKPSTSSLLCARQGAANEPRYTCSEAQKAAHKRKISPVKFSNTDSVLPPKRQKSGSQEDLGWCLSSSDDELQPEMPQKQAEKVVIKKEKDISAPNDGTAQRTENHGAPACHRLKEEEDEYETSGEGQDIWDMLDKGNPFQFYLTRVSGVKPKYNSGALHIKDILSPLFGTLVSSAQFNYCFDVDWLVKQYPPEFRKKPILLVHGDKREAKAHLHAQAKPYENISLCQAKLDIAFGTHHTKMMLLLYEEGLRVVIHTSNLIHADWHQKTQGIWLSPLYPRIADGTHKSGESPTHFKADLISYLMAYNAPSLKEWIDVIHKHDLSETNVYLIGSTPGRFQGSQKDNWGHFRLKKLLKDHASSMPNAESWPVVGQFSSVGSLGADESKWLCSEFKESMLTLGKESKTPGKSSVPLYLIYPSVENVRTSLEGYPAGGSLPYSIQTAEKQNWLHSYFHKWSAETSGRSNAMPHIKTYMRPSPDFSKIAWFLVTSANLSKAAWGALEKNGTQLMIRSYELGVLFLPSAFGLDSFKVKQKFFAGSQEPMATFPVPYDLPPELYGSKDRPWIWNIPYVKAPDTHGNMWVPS
Experimental: Tdp1 inhibitory activity was measured by the drug's ability to inhibit the hydrolysis of the phosphodiester linkage between tyrosine and the 3′-end of the DNA substrate, and to prevent the generation of an oligonucleotide with a free 3′-phosphate (N14P). Therefore, the disappearance of the gel band for N14P indicated Tdp1 inhibition.
Gel-based Assay Measuring the Inhibition of Recombinant Tdp1.
A 5′-[^32P]-labeled single-stranded DNA oligonucleotide containing a 3′-phosphotyrosine (N14Y) was generated as described by Dexheimer et al. The DNA substrate was then incubated with 5 pM recombinant Tdp1 in the absence or presence of inhibitor for 15 min at room temperature in a buffer containing 50 mM Tris HCl, pH 7.5, 80 mM KCl, 2 mM EDTA, 1 mM DTT, 40 μg/ml BSA and 0.01% Tween-20. […] Gel images were scanned using a Typhoon 8600 (GE Healthcare) and densitometric analyses were performed using the ImageQuant software (GE Healthcare).

[3] = test system: all human cancer cell lines successfully tested; test: NCI screen, mean graph midpoint (MGM) for growth inhibition; format: cell-based

human recombinant Top1, sequence (P11387 whole entry): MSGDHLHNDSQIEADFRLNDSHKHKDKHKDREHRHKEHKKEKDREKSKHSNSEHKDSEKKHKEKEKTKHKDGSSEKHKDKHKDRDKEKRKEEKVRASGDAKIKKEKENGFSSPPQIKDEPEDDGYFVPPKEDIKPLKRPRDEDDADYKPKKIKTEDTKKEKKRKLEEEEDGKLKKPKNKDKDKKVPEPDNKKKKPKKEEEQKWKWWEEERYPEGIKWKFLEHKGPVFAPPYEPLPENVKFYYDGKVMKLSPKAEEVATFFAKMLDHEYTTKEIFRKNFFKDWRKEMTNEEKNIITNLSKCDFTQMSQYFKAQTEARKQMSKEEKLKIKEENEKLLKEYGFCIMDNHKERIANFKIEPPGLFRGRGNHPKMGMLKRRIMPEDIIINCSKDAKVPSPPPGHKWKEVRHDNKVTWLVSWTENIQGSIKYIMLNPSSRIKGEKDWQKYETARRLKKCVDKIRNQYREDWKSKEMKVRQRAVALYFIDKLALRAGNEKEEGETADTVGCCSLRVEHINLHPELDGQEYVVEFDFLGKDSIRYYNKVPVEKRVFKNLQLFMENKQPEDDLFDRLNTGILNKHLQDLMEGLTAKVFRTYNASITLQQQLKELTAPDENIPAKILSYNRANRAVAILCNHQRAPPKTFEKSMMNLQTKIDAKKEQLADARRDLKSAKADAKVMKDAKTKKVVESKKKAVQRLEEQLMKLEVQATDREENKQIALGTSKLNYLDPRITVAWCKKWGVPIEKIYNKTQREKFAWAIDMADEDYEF

Row | Compound | Top1, compound-induced DNA cleavage due to Top1 inhibition [1] | also measured
1 | COc1ccc2c(c1)-c1c(c3ccc([N+](=O)[O-])cc3c(=O)n1CCCN1CCOCC1)C2=O [Compound 53 of (B), 8-Methoxy-6-(3-morpholinopropyl)-3-nitro-5H-indeno[1,2-c]isoquinoline-5,11(6H)-dione] | ++ | Tdp1 inhibitory activity (in words) [2]: very weak or inactive
2 | Cc1ccc(S(=O)(=O)OCCCCCCCn2c3c(c4ccccc4c2=O)C(=O)c2ccccc2-3)cc1 [Compound 29, 7-(5,11-Dioxo-5H-indeno[1,2-c]isoquinolin-6(11H)-yl)heptyl-4-methyl-benzenesulfonate] |  | Tdp1 inhibitory activity (in words) [2]: weakly active
3 | CC(C)(C)OC(=O)NCCCn1c2c(c3ccc(NC(=O)CCCC(=O)O)cc3c1=O)C(=O)c1ccccc1-2 [Compound 30 of (B), 5-[(6-(3-((tert-Butoxycarbonyl)amino)propyl)-5,11-dioxo-6,11-dihydro-5H-indeno[1,2-c]isoquinolin-3-yl)amino]-5-oxopentanoic Acid] | 0 | IC50 [2]: > 111 µM
4 | COC(=O)CCCC(=O)Nc1ccc2c3c(n(CCCNC(=O)OC(C)(C)C)c(=O)c2c1)-c1ccccc1C3=O [Compound 20 of (B), Methyl 5-[(6-(3-((tert-Butoxycarbonyl)amino)propyl)-5,11-dioxo-6,11-dihydro-5H-indeno[1,2-c]isoquinolin-3-yl)amino]-5-oxopentanoate] | 0 | IC50 [2]: > 111 µM
5 | CCOC(=O)CNc1ccc2c3c(n(C)c(=O)c2c1)-c1ccccc1C3=O [Compound 38 of (B), Ethyl 2-[(6-Methyl-5,11-dioxo-6,11-dihydro-5H-indeno[1,2-c]isoquinolin-3-yl)amino]acetate] | 0 | Tdp1 inhibitory activity (in words) ([2]; listed as 38): inactivity
6 | CS(=O)(=O)NCCCCCCCn1c2c(c3ccccc3c1=O)C(=O)c1ccccc1-2 [Compound 85] | +++ | Top1 inhibition (in words) [1]: active; suppression of Top1-mediated DNA cleavage at high drug concentration ([1]; high concentration of 100 μM): complete suppression
7 | COC(=O)CC(=O)Nc1ccc2c3c(n(CCCN)c(=O)c2c1)-c1ccccc1C3=O [Compound 23 of (B), Methyl 3-[(6-(3-Aminopropyl)-5,11-dioxo-6,11-dihydro-5H-indeno[1,2-c]isoquinolin-3-yl)amino]-3-oxopropanoate] |  | IC50 ([3]; Homo sapiens, read-out: MGM (μM)): 1.86 µM
8 | COC(=O)CC(=O)Nc1ccc2c3c(n(C)c(=O)c2c1)-c1ccccc1C3=O [Compound 10 of (B), Methyl 3-[(6-Methyl-5,11-dioxo-6,11-dihydro-5H-indeno[1,2-c]isoquinolin-3-yl)amino]-3-oxopropanoate] | 0 | 
9 | COc1ccc2c(c1)-c1c(c3ccc([N+](=O)[O-])cc3c(=O)n1CCCBr)C2=O [Compound 49 of (B), 6-(3-Bromopropyl)-5,6-dihydro-8-methoxy-3-nitro-5,11-dioxo-11H-indeno[1,2-c]isoquinoline] | +++ | Tdp1 inhibitory activity (in words) [2]: very weak or inactive
10 | COc1ccc2c(c1)-c1c(c3ccc([N+](=O)[O-])cc3c(=O)n1CCCN=[N+]=[N-])C2=O [Compound 50 of (B), 6-(3-Azidopropyl)-5,6-dihydro-8-methoxy-3-nitro-5,11-dioxo-11H-indeno[1,2-c]isoquinoline] | + | Tdp1 inhibitory activity (in words) [2]: very weak or inactive
11 | COC(=O)CCCC(=O)Nc1ccc2c3c(n(C)c(=O)c2c1)-c1ccccc1C3=O [Compound 12 of (B), Methyl 5-[(6-Methyl-5,11-dioxo-6,11-dihydro-5H-indeno[1,2-c]isoquinolin-3-yl)amino]-5-oxopentanoate] | + | 
12 | COC(=O)CCC(=O)Nc1ccc2c3c(n(CCCNC(=O)OC(C)(C)C)c(=O)c2c1)-c1ccccc1C3=O [Compound 19 of (B), Methyl 4-[(6-(3-((tert-Butoxycarbonyl)amino)propyl)-5,11-dioxo-6,11-dihydro-5H-indeno[1,2-c]isoquinolin-3-yl)amino]-4-oxobutanoate] | 0 | IC50 [2]: > 111 µM
13 | CC(C)(C)OC(=O)NCCCn1c2c(c3ccc(NC(=O)CCCCC(=O)O)cc3c1=O)C(=O)c1ccccc1-2 [Compound 31 of (B), 6-[(6-(3-((tert-Butoxycarbonyl)amino)propyl)-5,11-dioxo-6,11-dihydro-5H-indeno[1,2-c]isoquinolin-3-yl)amino]-6-oxohexanoic Acid] | (+) | 
14 | COC(=O)CCC(=O)Nc1ccc2c3c(n(CCCN)c(=O)c2c1)-c1ccccc1C3=O [Compound 24 of (B), Methyl 4-[(6-(3-Aminopropyl)-5,11-dioxo-6,11-dihydro-5H-indeno[1,2-c]isoquinolin-3-yl)amino]-4-oxobutanoate] | (+) | 
15 | N-(6-(5,11-Dioxo-5H-indeno[1,2-c]isoquinolin-6(11H)hexyl)-methanesulfonamide [Compound 84] |  | Top1 inhibition (in words) [1]: active; IC50 ([3]; mean graph midpoint for growth inhibition of all human cancer cell lines successfully tested, read-out: MGM): 0.25 ± 0.004 µM
16 | COC(=O)C(=O)Nc1ccc2c3c(n(C)c(=O)c2c1)-c1ccccc1C3=O [Compound 9 of (B), Methyl 2-[(6-Methyl-5,11-dioxo-6,11-dihydro-5H-indeno[1,2-c]isoquinolin-3-yl)amino]-2-oxoacetate] | 0 | 
17 | N#Cc1ccc2c3c(n(CCCN4CCOCC4)c(=O)c2c1)-c1ccccc1C3=O [Compound 73] | ++ | IC50 [2]: > 111 µM
18 | O=C1c2ccccc2-c2c1c1ccccc1c(=O)n2CCCl [Compound 30, 6-(2-Chloroethyl)-5H-indeno[1,2-c]isoquinoline-5,11(6H)-dione] |  | Tdp1 inhibitory activity (in words) [2]: inactive
19 | Cl.NCCCn1c2c(c3ccc(NC(=O)CC(=O)O)cc3c1=O)C(=O)c1ccccc1-2 [Compound 33 of (B), 3-[(6-(3-Aminopropyl)-5,11-dioxo-6,11-dihydro-5H-indeno[1,2-c]isoquinolin-3-yl)amino]-3-oxopropanoic Acid Hydrochloride] | + | 
20 | COC(=O)CCCCC(=O)Nc1ccc2c3c(n(C)c(=O)c2c1)-c1ccccc1C3=O [Compound 13 of (B), Methyl 6-[(6-Methyl-5,11-dioxo-6,11-dihydro-5H-indeno[1,2-c]isoquinolin-3-yl)amino]-6-oxohexanoate] | 0 | 
21 | CC(C)(C)OC(=O)NCCCn1c2c(c3ccc(NCC(=O)O)cc3c1=O)C(=O)c1ccccc1-2 [Compound 42 of (B), 2-((6-(3-((tert-Butoxycarbonyl)amino)propyl)-5,11-dioxo-6,11-dihydro-5H-indeno[1,2-c]isoquinolin-3-yl)amino)acetic Acid] | 0 | Tdp1 inhibitory activity (in words) [2]: inactivity
22 | CC(C)(C)OC(=O)NCCCn1c2c(c3ccc(NC(=O)CCC(=O)O)cc3c1=O)C(=O)c1ccccc1-2 [Compound 29 of (B), 4-[(6-(3-((tert-Butoxycarbonyl)amino)propyl)-5,11-dioxo-6,11-dihydro-5H-indeno[1,2-c]isoquinolin-3-yl)amino]-4-oxobutanoic Acid] | (+) | IC50 [2]: 37 to 111 µM
23 | COC(=O)CC(=O)Nc1ccc2c3c(n(CCCNC(=O)OC(C)(C)C)c(=O)c2c1)-c1ccccc1C3=O [Compound 18 of (B), Methyl 3-[(6-(3-((tert-Butoxycarbonyl)amino)propyl)-5,11-dioxo-6,11-dihydro-5H-indeno[1,2-c]isoquinolin-3-yl)amino]-3-oxopropanoate] | 0 | IC50 [2]: > 111 µM
24 | Cn1c2c(c3ccc(NCC(=O)O)cc3c1=O)C(=O)c1ccccc1-2 [Compound 41 of (B), 2-[(6-Methyl-5,11-dioxo-6,11-dihydro-5H-indeno[1,2-c]isoquinolin-3-yl)-amino]acetic Acid] | 0 | Tdp1 inhibitory activity (in words) ([2]; listed as 41): inactivity
25 | Cl.NCCCn1c2c(c3ccc(NC(=O)CCC(=O)O)cc3c1=O)C(=O)c1ccccc1-2 [Compound 34 of (B), 4-[(6-(3-Aminopropyl)-5,11-dioxo-6,11-dihydro-5H-indeno[1,2-c]isoquinolin-3-yl)amino]-4-oxobutanoic Acid Hydrochloride] | + | 
26 | Cl.NCCCn1c2c(c3ccc(NC(=O)CCCCC(=O)O)cc3c1=O)C(=O)c1ccccc1-2 [Compound 36 of (B), 6-[(6-(3-Aminopropyl)-5,11-dioxo-6,11-dihydro-5H-indeno[1,2-c]isoquinolin-3-yl)amino]-6-oxohexanoic Acid Hydrochloride] | + | 
27 | COC(=O)CCC(=O)Nc1ccc2c3c(n(C)c(=O)c2c1)-c1ccccc1C3=O [Compound 11 of (B), Methyl 4-[(6-Methyl-5,11-dioxo-6,11-dihydro-5H-indeno[1,2-c]isoquinolin-3-yl)amino]-4-oxobutanoate] | (+) | 
28 | N#Cc1ccc2c3c(n(CCCn4ccnc4)c(=O)c2c1)-c1ccccc1C3=O [Compound 72] | ++ | IC50 [2]: > 111 µM
29 | Cl.NCCCn1c2c(c3ccc(NC(=O)CCCC(=O)O)cc3c1=O)C(=O)c1ccccc1-2 [Compound 35 of (B), 5-[(6-(3-Aminopropyl)-5,11-dioxo-6,11-dihydro-5H-indeno[1,2-c]isoquinolin-3-yl)amino]-5-oxopentanoic Acid Hydrochloride] | 0 | 
30 | Cl.NCCCn1c2c(c3ccc(NC(=O)C(=O)O)cc3c1=O)C(=O)c1ccccc1-2 [Compound 32 of (B), 2-[(6-(3-Aminopropyl)-5,11-dioxo-6,11-dihydro-5H-indeno[1,2-c]isoquinolin-3-yl)amino]-2-oxoacetic Acid Hydrochloride] | + | 
